Data from patent US20180273897A1, “MODIFIED T-CELLS HAVING ANTI-FUGETACTIC PROPERTIES AND USES THEREOF” (THE GENERAL HOSPITAL CORPORATION, priority 2015, published 2018).

Test system: human CD3+ T cells
Settings: T cells pre-incubated with 0.01 μM to 10 mM AMD3100; harvested after 3 h; anti-fugetactic at lower, fugetactic at higher concentrations
Protocol: For quantitative transmigration assays, purified human CD3^+ T cells (approximately 2×10^4 cells) are added to the upper chamber of a Transwell® insert in each well, to a total volume of 150 μl of Iscove's modified medium. […] To determine the anti-fugetactic concentration of AMD3100, the T cells are incubated with 0.01 μM to 10 mM AMD3100 prior to addition to the chamber. Cells are harvested from the lower chamber after 3 h, and cell counts are performed using a hemocytometer.

c1cc(CN2CCCNCCNCCCNCC2)ccc1CN1CCCNCCNCCCNCC1 [AMD3100, 1,1′[1,4-phenylenebis(methylene)]bis [1,4,8,11-tetraazacyclotetradecane]]
Effect on T cell migration away from tumor cells (anti-fugetactic versus fugetactic): bimodal effect
